Results: BindingDB's records for doi:10.1016/j.bmc.2006.09.055 (University of Cape Town, 2007)

Target: T1, Falcipain 2 (Plasmodium falciparum, UniProt Q9N6S8)
T1 sequence (Q9N6S8 whole entry): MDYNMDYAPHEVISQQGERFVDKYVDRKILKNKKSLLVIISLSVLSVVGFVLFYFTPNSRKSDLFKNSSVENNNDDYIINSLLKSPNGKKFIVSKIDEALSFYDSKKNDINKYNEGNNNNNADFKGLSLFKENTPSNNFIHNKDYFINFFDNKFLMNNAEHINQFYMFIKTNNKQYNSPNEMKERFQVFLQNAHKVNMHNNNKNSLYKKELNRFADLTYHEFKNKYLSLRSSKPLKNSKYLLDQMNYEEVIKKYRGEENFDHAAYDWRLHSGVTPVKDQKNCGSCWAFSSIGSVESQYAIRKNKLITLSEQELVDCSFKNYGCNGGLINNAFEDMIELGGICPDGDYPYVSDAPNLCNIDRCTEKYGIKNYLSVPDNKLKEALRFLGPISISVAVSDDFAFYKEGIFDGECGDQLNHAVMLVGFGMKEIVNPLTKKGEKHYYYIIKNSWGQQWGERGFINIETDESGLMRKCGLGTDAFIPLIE
Test: Falcipain-2 Inhibition Assay
Details: pH 5.5; 22 °C
Protocol: IC50 values against the recombinant falcipain-2 were determined by incubating protein with different concentrations of inhibitors in reaction buffer after addition of the substrate. Fluorescence was continuously monitored for 30 min at room temperature in a Labsystems Fluoroscan Ascent spectrofluorometer. IC50 values were determined from plots of activity over inhibitor concentration with GraphPad Prism software.

IC50: > 20 µM
SMILES: NC(=S)NN=Cc1ccc(O)cc1O [2,4-dihydroxybenzaldehyde thiosemicarbazone]
